Source: publication PMC4186771 (Journal of neurochemistry, 2013)
One block for each molecule: values may come before it.

Tests used:
[1] = molecular target: α1β2γ2 Cys-less GABAAR [α1(C234A,C293A)β2(C288A)γ2(C244A,C303A)] (UniProt P18508+P47870+P62813, C260A/C282A/C312A/C319A/C341A); experiment: GABA-induced currents, two-electrode voltage clamp in Xenopus laevis oocytes; format: cell-based, rat α1 and γ2s, human β2; settings: for Modulation of the Cys-less receptor compared with WT: Cys-less versus wild-type α1β2γ2
Sequence of α1β2γ2 Cys-less GABAAR [α1(C234A,C293A)β2(C288A)γ2(C244A,C303A)] (P62813 28-455 C260A/C319A): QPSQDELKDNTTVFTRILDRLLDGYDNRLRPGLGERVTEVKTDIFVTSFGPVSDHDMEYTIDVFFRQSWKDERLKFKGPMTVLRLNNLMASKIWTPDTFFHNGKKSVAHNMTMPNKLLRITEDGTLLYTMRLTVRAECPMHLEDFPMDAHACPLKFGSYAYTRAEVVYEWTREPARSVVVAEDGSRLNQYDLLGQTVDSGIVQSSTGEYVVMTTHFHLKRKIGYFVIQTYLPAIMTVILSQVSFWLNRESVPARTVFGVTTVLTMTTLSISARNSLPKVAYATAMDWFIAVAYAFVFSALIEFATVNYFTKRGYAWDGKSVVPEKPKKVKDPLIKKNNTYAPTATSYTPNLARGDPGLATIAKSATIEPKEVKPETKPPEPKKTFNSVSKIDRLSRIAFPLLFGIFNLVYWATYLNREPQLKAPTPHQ
Sequence of α1β2γ2 Cys-less GABAAR [α1(C234A,C293A)β2(C288A)γ2(C244A,C303A)] (P47870 25-474 isoform P47870-1 C312A limits assumed): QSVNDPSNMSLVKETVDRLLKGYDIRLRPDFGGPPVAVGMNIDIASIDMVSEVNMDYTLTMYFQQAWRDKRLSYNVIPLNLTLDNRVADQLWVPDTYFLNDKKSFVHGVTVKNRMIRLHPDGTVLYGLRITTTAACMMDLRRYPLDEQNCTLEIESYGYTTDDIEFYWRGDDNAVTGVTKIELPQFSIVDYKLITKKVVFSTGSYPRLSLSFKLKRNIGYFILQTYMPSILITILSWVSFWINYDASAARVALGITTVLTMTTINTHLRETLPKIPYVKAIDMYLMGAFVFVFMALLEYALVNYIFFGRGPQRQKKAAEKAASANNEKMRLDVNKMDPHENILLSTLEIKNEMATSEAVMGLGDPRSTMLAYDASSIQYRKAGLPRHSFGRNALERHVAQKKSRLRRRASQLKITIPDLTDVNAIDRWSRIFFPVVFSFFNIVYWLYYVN
Sequence of α1β2γ2 Cys-less GABAAR [α1(C234A,C293A)β2(C288A)γ2(C244A,C303A)] (P18508 39-466 C282A/C341A): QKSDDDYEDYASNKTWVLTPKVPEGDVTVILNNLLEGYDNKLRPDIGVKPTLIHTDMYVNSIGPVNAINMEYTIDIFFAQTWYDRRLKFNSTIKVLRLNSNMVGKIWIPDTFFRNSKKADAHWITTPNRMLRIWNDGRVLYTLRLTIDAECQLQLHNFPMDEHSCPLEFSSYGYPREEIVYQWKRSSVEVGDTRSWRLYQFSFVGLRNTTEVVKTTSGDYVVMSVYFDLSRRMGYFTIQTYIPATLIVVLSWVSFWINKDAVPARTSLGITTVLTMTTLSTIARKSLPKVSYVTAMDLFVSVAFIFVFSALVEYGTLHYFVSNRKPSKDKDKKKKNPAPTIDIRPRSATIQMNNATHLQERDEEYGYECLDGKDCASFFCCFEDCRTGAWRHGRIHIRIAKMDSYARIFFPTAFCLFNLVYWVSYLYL

[2] = molecular target: α1(Q229C)β2(N265C)γ2 GABAAR (UniProt P18508+P47870+P62813, C260A/C282A/C312A/C319A/C341A/N289C/Q255C); experiment: as above; format: cell-based, rat α1 and γ2s, human β2; settings: change vs initial response, compared with Cys-less; EC50 GABA; DTT 2 mM 2 min
[3] = molecular target: α1(Q229C)β2(M286C)γ2 GABAAR (UniProt P18508+P47870+P62813, C260A/C282A/C312A/C319A/C341A/M310C/Q255C); experiment: as above; format: cell-based, rat α1 and γ2s, human β2; settings: change vs initial response, compared with Cys-less; EC50 GABA; DTT 2 mM 2 min
[4] = molecular target: α1(L232C)β2(M286C)γ2 GABAAR (UniProt P18508+P47870+P62813, C260A/C282A/C312A/C319A/C341A/L258C/M310C); experiment: as above; format: cell-based, rat α1 and γ2s, human β2
[5] = molecular target: α1(L232C)β2(F289C)γ2 GABAAR (UniProt P18508+P47870+P62813, C260A/C282A/C312A/C319A/C341A/F313C/L258C); experiment: as above; format: cell-based, rat α1 and γ2s, human β2; settings: change vs initial response, compared with Cys-less; 100 μM GABA; DTT 2 mM 2 min
[6] = molecular target: α1β2(T225C,N265C)γ2 GABAAR (UniProt P18508+P47870+P62813, C260A/C282A/C312A/C319A/C341A/N289C/T249C); experiment: as above; format: cell-based, rat α1 and γ2s, human β2; settings: change vs initial response, compared with Cys-less; 1 mM GABA; DTT 2 mM 2 min
[7] = molecular target: α1β2(T225C,L285C)γ2 GABAAR (UniProt P18508+P47870+P62813, C260A/C282A/C312A/C319A/C341A/L309C/T249C); experiment: as above; format: cell-based, rat α1 and γ2s, human β2
[8] = molecular target: α1β2(T225C,C288)γ2 GABAAR (UniProt P18508+P47870+P62813, C260A/C282A/C319A/C341A/T249C); experiment: as above; format: cell-based, rat α1 and γ2s, human β2; settings: change vs initial response, compared with Cys-less; EC50 GABA; DTT 2 mM 2 min
[9] = molecular target: α1β2(N265C,L285C)γ2 GABAAR (UniProt P18508+P47870+P62813, C260A/C282A/C312A/C319A/C341A/L309C/N289C); experiment: as above; format: cell-based, rat α1 and γ2s, human β2
[10] = molecular target: α1β2(N265C,M286C)γ2 GABAAR (UniProt P18508+P47870+P62813, C260A/C282A/C312A/C319A/C341A/M310C/N289C); experiment: as above; format: cell-based, rat α1 and γ2s, human β2; settings: change vs initial response, compared with Cys-less; EC50 GABA; DTT 2 mM 2 min
[11] = molecular target: α1β2(N265C,C288)γ2 GABAAR (UniProt P18508+P47870+P62813, C260A/C282A/C319A/C341A/N289C); experiment: as above; format: cell-based, rat α1 and γ2s, human β2
[12] = molecular target: α1β2(N265C,F289C)γ2 GABAAR (UniProt P18508+P47870+P62813, C260A/C282A/C312A/C319A/C341A/F313C/N289C); experiment: as above; format: cell-based, rat α1 and γ2s, human β2; settings: change vs initial response, compared with Cys-less; EC50 GABA; DTT 2 mM 2 min
[13] = molecular target: α1(L232C)β2γ2 GABAAR (UniProt P18508+P47870+P62813, C260A/C282A/C312A/C319A/C341A/L258C); experiment: as above; format: cell-based, rat α1 and γ2s, human β2
[14] = molecular target: α1β2(T225C)γ2 GABAAR (UniProt P18508+P47870+P62813, C260A/C282A/C312A/C319A/C341A/T249C); experiment: as above; format: cell-based, rat α1 and γ2s, human β2; settings: EC10 GABA; BMTS 0.5 mM co-applied with maximal GABA
[15] = molecular target: α1β2(M286C)γ2 GABAAR (UniProt P18508+P47870+P62813, C260A/C282A/C312A/C319A/C341A/M310C); experiment: as above; format: cell-based, rat α1 and γ2s, human β2
[16] = molecular target: β2C288-containing GABAARs (UniProt P18508+P47870+P62813, C260A/C282A/C319A/C341A); experiment: as above; format: cell-based, rat α1 and γ2s, human β2; settings: EC10 GABA; BMTS 0.5 mM co-applied with maximal GABA
[17] = molecular target: α1(Q229C)β2γ2 GABAAR (UniProt P18508+P47870+P62813, C260A/C282A/C312A/C319A/C341A/Q255C); experiment: as above; format: cell-based, rat α1 and γ2s, human β2; settings: Butanol (33 mM) modulation of EC10 GABA; after versus before BMTS labeling
[18] = molecular target: β2(N265C)-containing GABAARs (UniProt P18508+P47870+P62813, C260A/C282A/C312A/C319A/C341A/N289C); experiment: as above; format: cell-based, rat α1 and γ2s, human β2
Sequence of β2(N265C)-containing GABAARs (P62813 28-455 C260A/C319A): as the sequence (P62813 28-455 C260A/C319A) above
Sequence of β2(N265C)-containing GABAARs (P47870 25-474 isoform P47870-1 N289C/C312A limits assumed): as the sequence (P47870 25-474 isoform P47870-1 C312A limits assumed) above, with N265C counted along it
Sequence of β2(N265C)-containing GABAARs (P18508 39-466 C282A/C341A): as the sequence (P18508 39-466 C282A/C341A) above

[19] = molecular target: β2(L285C)-containing GABAARs (UniProt P18508+P47870+P62813, C260A/C282A/C312A/C319A/C341A/L309C); experiment: as above; format: cell-based, rat α1 and γ2s, human β2
[20] = molecular target: α1β2(F289C)γ2 GABAAR (UniProt P18508+P47870+P62813, C260A/C282A/C312A/C319A/C341A/F313C); experiment: as above; format: cell-based, rat α1 and γ2s, human β2
Sequence of α1β2(F289C)γ2 GABAAR (P62813 28-455 C260A/C319A): as the sequence (P62813 28-455 C260A/C319A) above
Sequence of α1β2(F289C)γ2 GABAAR (P47870 25-474 isoform P47870-1 C312A/F313C limits assumed): as the sequence (P47870 25-474 isoform P47870-1 C312A limits assumed) above, with F289C counted along it
Sequence of α1β2(F289C)γ2 GABAAR (P18508 39-466 C282A/C341A): as the sequence (P18508 39-466 C282A/C341A) above

[21] = test system: bovine GABAAR; settings: ref Li et al. 2010; cited from earlier work
[22] = test system: wild-type GLIC; settings: intra-subunit binding; ref Weng et al. 2010; cited from earlier work
[23] = test system: mutated alcohol-sensitive GLIC; settings: inter-subunit binding; ref Howard et al. 2011; cited from earlier work
[24] = test system: recombinant α1β3γ2 GABAARs; settings: in the presence of GABA; ref Chiara et al. 2013; cited from earlier work
[25] = change vs initial response, compared with Cys-less, EC50 GABA, DTT 2 mM 2 min
[26] = EC10 GABA, BMTS 0.5 mM co-applied with maximal GABA
[27] = Butanol (33 mM) modulation of EC10 GABA, after versus before BMTS labeling
[28] = Butanol modulation of EC10 GABA, 11 and 33 mM, after Cu^++:Phen versus after DTT
[29] = single cysteine mutant, no treatment
[30] = Isoflurane 0.3 and 0.9 mM on EC10 GABA, after Cu^++:Phen versus after DTT
[31] = Isoflurane 0.3 mM on EC10 GABA, after versus before BMTS labeling

GABA responses After DTT ([1]; change vs initial response, EC50 GABA, DTT 2 mM 2 min): No change | GABA responses After DTT [2]: Decrease | GABA responses After DTT [3]: Increase | GABA responses After DTT [4, 25]: No change | GABA responses After DTT [5]: Increase | GABA responses After DTT [6]: Increase | GABA responses After DTT [7, 25]: No change | GABA responses After DTT [8]: Increase | GABA responses After DTT [9, 25]: No change | GABA responses After DTT [10]: Decrease | GABA responses After DTT [11, 25]: No change | GABA responses After DTT [12]: Increase
Structure (SMILES): O[C@@H](CS)[C@@H](O)CS (racemic) [DTT, dithiothreitol]

Structure (SMILES): CCCCSS(C)(=O)=O [BMTS, butyl methanethiosulfonate]
GABA responses after BMTS + GABA [1, 26]: No change | GABA responses after BMTS + GABA [13, 26]: Increase | GABA responses after BMTS + GABA [14]: No net change | GABA responses after BMTS + GABA [15, 26]: Increase | GABA responses after BMTS + GABA [16]: No change

Structure (SMILES): CCCCO [Butanol, butanol]
Butanol effect after BMTS labeling [1, 27]: No change/ Small decrease | Butanol effect After crosslink [1, 28]: No change | Butanol effect After crosslink [4, 28]: No change | Butanol effect After crosslink [7, 28]: Decrease | Change in the butanol potentiation after oxidation ([7]; Butanol on EC10 GABA, after Cu^++:Phen versus after DTT): −51% | Butanol effect After crosslink [9, 28]: Decrease | Butanol effect After crosslink [11, 28]: Decrease | Butanol effect after BMTS labeling [17]: No change | Butanol effect after BMTS labeling [13, 27]: No change | Butanol potentiation of GABA responses compared with the Cys-less receptor [13, 29]: decreased | Butanol effect after BMTS labeling [18, 27]: Decrease | Butanol potentiation of GABA responses compared with the Cys-less receptor [18, 29]: decreased | Butanol effect after BMTS labeling [19, 27]: No change | Butanol potentiation of GABA responses compared with the Cys-less receptor [19, 29]: decreased | Butanol effect after BMTS labeling [15, 27]: Decrease | Butanol potentiation of GABA responses compared with the Cys-less receptor [15, 29]: decreased | Butanol potentiation of GABA responses compared with the Cys-less receptor [20, 29]: decreased

Structure (SMILES): FC(F)OC(Cl)C(F)(F)F (stereo not drawn) [Isoflurane]
Isoflurane effect after oxidation (crosslink) [4, 30]: no changes | Isoflurane potentiation after oxidation (crosslink) [7, 30]: decrease | Isoflurane potentiation after BMTS labeling [18, 31]: decreased | Isoflurane potentiation after BMTS labeling [15, 31]: decreased | Isoflurane effect after BMTS labeling ([20]; EC10 GABA, after versus before BMTS treatment, data not shown): switched from very small, and even inhibitory effects, to potentiation | Isoflurane potentiation of GABA responses compared with the Cys-less receptor [20, 29]: decreased | Block of etomidate analog photolabeling [21]: isoflurane could

Structure (SMILES): FC(F)OC(F)C(F)(F)F (stereo not drawn) [desflurane]
Effect on channel function [22]: inhibits

Structure (SMILES): CCO [ethanol]
Modulation of the Cys-less receptor compared with WT [1]: essentially the same as WT | Effect on channel function [23]: potentiates

Structure (SMILES): CCCCCCCCO [octanol]
Block of etomidate analog photolabeling [21]: neither octanol nor ethanol could block | Block of photolabeling [24]: blocked

Structure (SMILES): CC(C)c1cccc(C(C)C)c1O [propofol]
Effect on channel function [22]: inhibits

Structure (SMILES): [Zn] [zinc]
Modulation of the Cys-less receptor compared with WT [1]: essentially the same as WT
